Test results from patent US5395610A, “Agents for potentiating the effects of antitumor agents and combating multiple drug resistance” (Burroughs-Wellcome Co., priority 1989, dated 1995).
Counter-ions that a name gives are not always drawn.

Experiments:
[1] = In vitro cytotoxicity / potentiation of Actinomycin D in Chinese hamster ovary cells, drug resistant C5S32 (MTT); type: cell-based; conditions: hamster, cho c5s32 cells, fraction of untreated cultures (1.00), read-out: Cytotoxicity, normalized absorbance, Drug Resistant C5S32, 0 (no Act D); for viability at 96 h, 1 µM: 1 μM potentiating agent alone; for viability at 96 h, 10 µM: 10 μM potentiating agent alone
[2] = system: Chinese hamster ovary (CHO) cells, drug resistant C5S32; assay: as above; type: cell-based; conditions: 96 h, fraction of Act D alone (1.00)
[3] = in vitro; type: cell-based, Chinese hamster; conditions: hamster, cho auxb1 cells
[4] = In vitro cytotoxicity / potentiation of Actinomycin D in human KB epidermoid carcinoma cells, wildtype KB 3-1 (MTT); type: cell-based; conditions: human, kb 3-1 cells, fraction of untreated cultures, read-out: Cytotoxicity, normalized absorbance, Wildtype KB 3-1, 0 (no Act D); for viability at 96 h, 1 µM: 1 μM potentiating agent alone; for viability at 96 h, 10 µM: 10 μM potentiating agent alone
[5] = system: human KB epidermoid carcinoma cells, wildtype KB 3-1; assay: as above; type: cell-based; conditions: 96 h, fraction of Act D alone
[6] = In vitro cytotoxicity / potentiation of Actinomycin D in human KB epidermoid carcinoma cells, drug resistant KB V-1 (MTT); type: cell-based; conditions: human, kb v-1 cells, fraction of untreated cultures, read-out: Cytotoxicity, normalized absorbance, Drug Resistant KB V-1, 0 (no Act D); for viability at 96 h, 1 µM: 1 μM potentiating agent alone; for viability at 96 h, 10 µM: 10 μM potentiating agent alone
[7] = system: human KB epidermoid carcinoma cells, drug resistant KB V-1; assay: as above; type: cell-based; conditions: 96 h, fraction of Act D alone
[8] = 1 μM potentiating agent + Act D 0.5 μM
[9] = 10 μM potentiating agent + Act D 0.5 μM
[10] = 1 μM potentiating agent + Act D 0.1 nM
[11] = 10 μM potentiating agent + Act D 0.1 nM
[12] = 1 μM potentiating agent + Act D 20 nM
[13] = 10 μM potentiating agent + Act D 20 nM

Row | SMILES | viability at 96 h, 1 µM [1] | viability at 96 h, 10 µM [1] | Synergism with Actinomycin D, normalized absorbance, Drug Resistant C5S32, +ACT D [2, 8] | Synergism with Actinomycin D, normalized absorbance, Drug Resistant C5S32, +ACT D [2, 9] | viability at 96 h, 1 µM [3] | viability at 96 h, 10 µM [3] | viability at 96 h, 1 µM [4] | viability at 96 h, 10 µM [4] | Synergism with Actinomycin D, normalized absorbance, Wildtype KB 3-1, +ACT D [5, 10] | Synergism with Actinomycin D, normalized absorbance, Wildtype KB 3-1, +ACT D [5, 11] | viability at 96 h, 1 µM [6] | viability at 96 h, 10 µM [6] | Synergism with Actinomycin D, normalized absorbance, Drug Resistant KB V-1, +ACT D [7, 12] | Synergism with Actinomycin D, normalized absorbance, Drug Resistant KB V-1, +ACT D [7, 13]
1 | Brc1ccc2c(c1)/C(=C/CCN1CCCC1)c1cc(Br)ccc1OC2 [(O), (Z)-1-[3-(2,9-dibromo-6,11-dihydrodibenz [b,e]-oxepin-11-ylidene)propyl]pyrrolidine] | 48% | 35% | 0.58 | 0.38 | 100% | 93% | 79% | 64% | 0.81 | 0.73 | 74% | 7% | 0.78 | 0.06
2 | Brc1cccc2c1OCc1ccccc1C2=CCN1CCCC1 [(J), 1-[2-(4-Bromo-6,11-dihydrodibenz[b,e]oxepin-11-ylidine)-ethyl]pyrrolidine 60% Z, 40% E] | 80% | 29% | 0.66 | 0.12 | 100% | 100% | 89% | 80% | 0.85 | 0.77 | 88% | 45% | 0.74 | 0.01
3 | CN(C)CC/C=C1/c2ccccc2COc2cc(Br)ccc21 [(E)] | 85% | 48% | 0.66 | 0.35 | 100% | 100% | 89% | 89% | 0.85 | 0.77 | 88% | 45% | 0.74 | 0.01
4 | Fc1ccc2c(c1)/C(=C/CCN1CCCC1)c1ccccc1CO2 [(S), (E)-1-[3-(2-fluoro-6,11-dihydrodibenz [b,e]-oxepin-11-ylidene)propyl]pyrrolidine] | 100% | 100% | 0.94 | 0.58 | 91% | 88% | 77% | 67% | 0.79 | 0.72 | 89% | 72% | 0.84 | 0.48
5 | C(/CN1CCCC1)=C1\c2ccccc2COc2ccccc21 [(H), hydrochloride] | 82% | 53% | 0.95 | 0.51 | 100% | 94% |  |  |  |  |  |  |  | 
6 | CN(C)CC/C=C1\c2ccccc2COc2ccc(Br)cc21 [(B), (E)-3-(2-Bromo-6,11-dihydrodibenz [b,e]oxepin-11-ylidene)-N,N-dimethylpropylamine 3/2 hydrochloride] | 83% | 55% | 0.82 | 0.37 | 98% | 87% | 100% | 83% |  | 0.91 | 100% | 44% |  | 0.01
